The source made the active and inactive calls. The rule behind the calls is not given here.
Legend:
MDA-MB-231 [1] = experiment: Induction of apoptosis in human MDA-MB-231 cells assessed as increase in Bax protein expression at 5 uM incubated for 24 to 48 hrs by Western blot analysis; type: functional, cell-based; conditions: time 24-48 hrs
[2] = target: Poly [ADP-ribose] polymerase 1 (Homo sapiens) (UniProt P09874); experiment: Induction of PARP1 degradation in triple-negative human MDA-MB-231 cells assessed as fold change in PARP1 protein expression at 1 uM incubated for 24 hrs by Western blot analysis relative to control; type: cell-based
MDA-MB-231 [3] = experiment: Induction of endoplasmic reticulum stress in human MDA-MB-231 cells assessed as increase in XBP-1s protein expression at 5 uM measured after 24 to 72 hrs by Western blot analysis; type: functional, cell-based; conditions: time 24-72 hrs
[4] = target: Poly [ADP-ribose] polymerase 1 (Homo sapiens) (UniProt P09874); experiment: Induction of PARP1 degradation in triple-negative human MDA-MB-231 cells assessed as fold change in PARP1 protein expression at 1 uM incubated for 48 hrs by Western blot analysis relative to control; type: cell-based
[5] = target: Poly [ADP-ribose] polymerase 1 (Homo sapiens) (UniProt P09874); experiment: Induction of PARP1 degradation in human MDA-MB-231 cells assessed as fold change in PARP1 protein expression at 5 uM pretreated with caspase I inhibitor, Ac-YVAD-cmk for 2 hrs followed by incubation with compound for 48 hrs by Western blot analysis relative to control; type: cell-based
[6] = target: Poly [ADP-ribose] polymerase 1 (Homo sapiens) (UniProt P09874); experiment: Induction of PARP1 degradation in human MDA-MB-468 cells assessed as fold change in PARP1 protein expression at 5 uM pretreated with caspase I inhibitor, Ac-YVAD-cmk for 2 hrs followed by incubation with compound for 48 hrs by Western blot analysis relative to control; type: cell-based
[7] = target: Poly [ADP-ribose] polymerase 1 (Homo sapiens) (UniProt P09874); experiment: Induction of PARP1 degradation in triple-negative human MDA-MB-231 cells assessed as fold change in PARP1 protein expression at 0.01 uM incubated for 24 hrs by Western blot analysis relative to control; type: cell-based
[8] = target: Poly [ADP-ribose] polymerase 1 (Homo sapiens) (UniProt P09874); experiment: Induction of PARP1 degradation in human MDA-MB-468 cells at 5 uM incubated for 48 hrs in presence 5 uM PARP1 inhibitor olaparib by Western blot analysis; type: cell-based
MDA-MB-231 [9] = experiment: Induction of apoptosis in human MDA-MB-231 cells assessed as downregulation in survivin gene expression at 5 to 10 uM incubated for 24 to 48 hrs by RT-PCR analysis; type: functional, cell-based; conditions: dose 5-10 µM, time 24-48 hrs
[10] = target: Poly [ADP-ribose] polymerase 1 (Homo sapiens) (UniProt P09874); experiment: Induction of PARP1 degradation in triple-negative human MDA-MB-231 cells assessed as fold change in PARP1 protein expression at 0.5 uM incubated for 24 hrs by Western blot analysis relative to control; type: cell-based
[11] = target: Poly [ADP-ribose] polymerase 1 (Homo sapiens) (UniProt P09874); experiment: Induction of PARP1 degradation in human MDA-MB-468 cells assessed as fold change in PARP1 protein expression at 5 uM incubated for 48 hrs in presence of pan-caspase inhibitor, Z-VAD-FMK by Western blot analysis; type: cell-based
MDA-MB-468 = experiment: Induction of apoptosis in human MDA-MB-468 cells assessed as increase in p21 protein expression at 5 uM incubated for 48 hrs by Western blot analysis; type: functional, cell-based
[12] = target: Poly [ADP-ribose] polymerase 1 (Homo sapiens) (UniProt P09874); experiment: Induction of PARP1 degradation in triple-negative human MDA-MB-231 cells assessed as fold change in PARP1 protein expression at 0.1 uM incubated for 24 hrs by Western blot analysis relative to control; type: cell-based
[13] = target: Poly [ADP-ribose] polymerase 1 (Homo sapiens) (UniProt P09874); experiment: Induction of PARP1 degradation in triple-negative human MDA-MB-231 cells assessed as fold change in PARP1 protein expression at 2.5 uM incubated for 24 hrs by Western blot analysis relative to control; type: cell-based
MDA-MB-231 [14] = experiment: Induction of apoptosis in human MDA-MB-231 cells assessed as decrease in Bcl2 protein expression at 5 uM incubated for 24 to 48 hrs by Western blot analysis; type: functional, cell-based; conditions: time 24-48 hrs
[15] = target: Poly [ADP-ribose] polymerase 1 (Homo sapiens) (UniProt P09874); experiment: Induction of PARP1 degradation in triple-negative human MDA-MB-231 cells assessed as fold change in PARP1 protein expression at 0.1 uM incubated for 48 hrs by Western blot analysis relative to control; type: cell-based
MDA-MB-231 [16] = experiment: Cytotoxicity against human MDA-MB-231 cells assessed as reduction in cell viability measured after 96 hrs by CCK8 assay; type: functional, cell-based; conditions: MDA-MB-231, 96 h
[17] = target: Poly [ADP-ribose] polymerase 1 (Homo sapiens) (UniProt P09874); experiment: Induction of PARP1 degradation in human MDA-MB-231 cells assessed as fold change in PARP1 protein expression at 5 uM pretreated for 2 hrs with pan-caspase inhibitor, Z-VAD-FMK followed by incubation with compound for 48 hrs by Western blot analysis relative to control; type: cell-based
MDA-MB-231 [18] = experiment: Cytotoxicity against triple-negative human MDA-MB-231 cells assessed as reduction in cell viability measured after 48 hrs by CCK8 assay; type: functional, cell-based; conditions: MDA-MB-231, 48 h
[19] = target: Poly [ADP-ribose] polymerase 1 (Homo sapiens) (UniProt P09874); experiment: Induction of PARP1 degradation in triple-negative human MDA-MB-231 cells assessed as fold change in PARP1 protein expression at 0.01 uM incubated for 48 hrs by Western blot analysis relative to control; type: cell-based
[20] = target: Poly [ADP-ribose] polymerase 1 (Homo sapiens) (UniProt P09874); experiment: Induction of PARP1 degradation in human MDA-MB-231 cells at 5 uM pretreated for 2 hrs with proteasome inhibitor, bortezomib for 2 hrs followed by incubation with compound for 48 hrs by immunoblotting analysis; type: cell-based
[21] = target: Poly [ADP-ribose] polymerase 1 (Homo sapiens) (UniProt P09874); experiment: Induction of PARP1 degradation in triple-negative human MDA-MB-231 cells assessed as fold change in PARP1 protein expression at 10 uM incubated for 48 hrs by Western blot analysis relative to control; type: cell-based
[22] = target: Poly [ADP-ribose] polymerase 1 (Homo sapiens) (UniProt P09874); experiment: Induction of PARP1 degradation in human MDA-MB-231 cells at 5 uM incubated for 48 hrs in presence 5 to 10 uM PARP1 inhibitor olaparib by Western blot analysis; type: cell-based
[23] = target: Poly [ADP-ribose] polymerase 1 (Homo sapiens) (UniProt P09874); experiment: Induction of PARP1 degradation in human MDA-MB-231 cells at 5 uM incubated for 48 hrs in presence of proteasome inhibitor, carfilzomib by immunoblotting analysis; type: cell-based
MDA-MB-231 [24] = experiment: Induction of apoptosis in human MDA-MB-231 cells assessed as upregulation in Bax gene expression at 5 to 10 uM incubated for 24 to 48 hrs by RT-PCR analysis; type: functional, cell-based; conditions: dose 5-10 µM, time 24-48 hrs
MDA-MB-231 [25] = experiment: Induction of apoptosis in human MDA-MB-231 cells assessed as upregulation in p21 gene expression at 5 to 10 uM incubated for 24 to 48 hrs by RT-PCR analysis; type: functional, cell-based; conditions: dose 5-10 µM, time 24-48 hrs
[26] = target: Poly [ADP-ribose] polymerase 1 (Homo sapiens) (UniProt P09874); experiment: Induction of PARP1 degradation in human MDA-MB-231 cells assessed as fold change in PARP1 protein expression at 5 uM incubated for 48 hrs in presence of caspase I inhibitor, Ac-YVAD-cmk by Western blot analysis relative to control; type: cell-based
MDA-MB-231 [27] = experiment: Cytotoxicity against human MDA-MB-231 cells assessed as reduction in cell growth at 5 uM measured after 96 hrs by CCK8 assay relative to control; type: functional
MDA-MB-231 [28] = experiment: Induction of autophagy in human MDA-MB-231 cells assessed as upregulation in LC3A gene expression at 5 to 10 uM measured after 24 to 48 hrs by RT-PCR analysis; type: functional, cell-based; conditions: dose 5-10 µM, time 24-48 hrs
MDA-MB-231 [29] = experiment: Induction of apoptosis in human MDA-MB-231 cells assessed as increase in p21 protein expression at 5 uM incubated for 24 to 48 hrs by Western blot analysis; type: functional, cell-based; conditions: time 24-48 hrs
[30] = target: Poly [ADP-ribose] polymerase 1 (Homo sapiens) (UniProt P09874); experiment: Induction of PARP1 degradation in human HCC1937 cells harboring BRCA mutation assessed as fold change in PARP1 protein expression at 5 uM incubated for 48 hrs by Western blot analysis relative to control; type: cell-based

Sequence of Poly [ADP-ribose] polymerase 1 (Homo sapiens) (P09874 whole entry): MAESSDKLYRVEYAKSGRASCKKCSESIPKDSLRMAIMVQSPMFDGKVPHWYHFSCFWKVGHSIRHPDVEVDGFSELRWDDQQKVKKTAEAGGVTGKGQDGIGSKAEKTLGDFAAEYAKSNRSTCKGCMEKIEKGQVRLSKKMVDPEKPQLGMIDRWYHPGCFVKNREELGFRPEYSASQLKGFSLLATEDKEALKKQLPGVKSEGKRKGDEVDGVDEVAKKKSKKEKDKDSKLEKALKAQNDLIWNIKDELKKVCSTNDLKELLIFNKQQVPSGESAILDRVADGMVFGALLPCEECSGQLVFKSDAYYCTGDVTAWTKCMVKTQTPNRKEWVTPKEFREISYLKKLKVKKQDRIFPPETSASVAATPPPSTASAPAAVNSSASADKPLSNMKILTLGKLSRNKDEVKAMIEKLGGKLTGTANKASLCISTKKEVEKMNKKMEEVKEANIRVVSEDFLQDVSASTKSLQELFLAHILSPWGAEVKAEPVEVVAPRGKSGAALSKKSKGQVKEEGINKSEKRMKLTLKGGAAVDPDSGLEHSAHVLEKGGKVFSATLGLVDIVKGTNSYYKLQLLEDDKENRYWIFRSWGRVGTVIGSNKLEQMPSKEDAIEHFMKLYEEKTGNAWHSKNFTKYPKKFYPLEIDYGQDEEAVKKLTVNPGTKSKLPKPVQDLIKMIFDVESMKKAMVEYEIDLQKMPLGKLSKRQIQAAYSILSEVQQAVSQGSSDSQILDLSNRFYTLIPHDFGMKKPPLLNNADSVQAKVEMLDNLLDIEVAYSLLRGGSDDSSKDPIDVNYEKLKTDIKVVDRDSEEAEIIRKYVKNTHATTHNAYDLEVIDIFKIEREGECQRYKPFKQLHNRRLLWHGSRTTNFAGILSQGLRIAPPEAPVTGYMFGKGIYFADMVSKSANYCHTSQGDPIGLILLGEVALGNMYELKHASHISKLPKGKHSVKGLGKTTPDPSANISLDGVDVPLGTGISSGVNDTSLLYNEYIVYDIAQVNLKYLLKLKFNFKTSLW

## O=C(CC1c2ccccc2-c2ccccc21)N1CCN(C(=O)c2cc(Cc3n[nH]c(=O)c4ccccc34)ccc2F)CC1
MDA-MB-231 [1]
  Activity: Active
[2]
  fold change (FC): 0.8
MDA-MB-231 [3]
  Activity: Active
[4]
  fold change (FC): 0.7
[5]
  fold change (FC): 0.3
[6]
  fold change (FC): 0.2
[7]
  fold change (FC): 0.9
[8]
  Activity: inactive
MDA-MB-231 [9]
  Activity: Active
[10]
  fold change (FC): 0.8
[11]
  fold change (FC): 0.4
MDA-MB-468
  Activity: Active
[12]
  fold change (FC): 0.9
[13]
  fold change (FC): 0.8
MDA-MB-231 [14]
  Activity: Active
[15]
  fold change (FC): 0.6
MDA-MB-231 [16]
  IC50: 2.1 µM
[17]
  fold change (FC): 0.3
MDA-MB-231 [18]
  IC50: 10.6 µM
[19]
  fold change (FC): 0.7
[20]
  Activity: inactive
[21]
  fold change (FC): 0.1
[22]
  Activity: inactive
[23]
  Activity: inactive
MDA-MB-231 [24]
  Activity: Active
MDA-MB-231 [25]
  Activity: Active
[26]
  fold change (FC): 0.3
MDA-MB-231 [27]
  inhibition at 5 µM: 80%
MDA-MB-231 [28]
  Activity: Active
MDA-MB-231 [29]
  Activity: Active
[30]
  fold change (FC): 0

From ChEMBL document CHEMBL4765403, “Augmentation of the antitumor effects of PARP inhibitors in triple-negative breast cancer via degradation by hydrophobic tagging modulation” (Eur J Med Chem, 2020)
